Here are results for 1 substance from US9555061B2, “Synthesis and analysis of compounds capable of inducing differentiation of human mesenchymal stems cells into hepatocytes” (National University Corporation Torrori University, priority 2011, dated 2017).

Type in all cases: cell-based, human
The subject of one assay is UE7T-13 cells. Kind of assay: Hepatocyte differentiation induction, RT-PCR of albumin (UE7T-13). As to conditions: 15 μM. As for the experimental part:
After 24 h, the medium was changed to a medium containing IC-2, etc. After that, the medium was changed twice a week, and the cells were subcultured once a week to adjust a cell number at 9.0×10^3 cells/cm^2. Total RNA was collected at days 8, 16, and 24 after the initiation of the induction.
Total RNA was extracted with a TRIzol reagent. After the extraction, in order to completely remove DNA, deoxyribonuclease was added and the mixture was incubated at 37° C. for 1 h. A SuperScript First-Stand Synthesis System for RT-PCR (Invitrogen) was used for reverse transcription, and an oligo dT primer was used to convert 1 μg of RNA into cDNA. To perform a PCR, the cDNA was diluted by 5 times and 1 μl of the cDNA was used. A recombinant Taq DNA polymerase (Invitrogen) was used for the PCR. With regard to primers for human albumin, 5′-[…]-3′ (SEQ ID NO: 1) and 5′-[…]-3′ (SEQ ID NO: 2) were used. The PCR involved 1 cycle of 95° C. for 2 min and 35 cycles of 95° C. for 30 sec, 58° C. for 30 sec, and 72° C. for 30 sec. Human glyceraldehyde 3-phosphate dehydrogenase (GAPDH) was used as an internal control. With regard to GAPDH primers, 5′-[…]-3′ (SEQ ID NO: 3) and 5′-[…]-3′ (SEQ ID NO: 4) were used. The PCR involved 1 cycle of 95° C. for 2 min and 20 cycles of 95° C. for 30 sec, 60° C. for 30 sec, and 72° C. for 30 sec. […]

Assay [1] deals with Wnt/β-catenin signaling pathway. Kind of assay: Luciferase assay in sorted bone marrow-derived mesenchymal stem cells. As to conditions: 40 or 45 μM; 8 days after the treatment. As for the experimental part:
(§1) Human bone marrow mononuclear cells that had been purchased from Lonza Inc. were suspended in 1 ml of Hanks' balanced salt solution (HBSS, Gibco, Life Technologies Corp.) supplemented with a 100-fold diluted APC-labeled anti-CD90 antibody, a 407-fold diluted PE-labeled anti-CD271 antibody, and 2% fetal bovine serum (FBS, Defined, Thermo Fisher Scientific Inc.), and were stained on ice for 30 min. A flow cytometer (MoFlo XDP, Beckman Coulter Inc.) was used to selectively separate mesenchymal stem cells. The resulting cells were cultured in Dulbecco's Modified Eagle's Medium (Low Glucose, Gibco, Life Technologies Corp.) containing 20% FBS, 100 U/ml penicillin, […] streptomycin (Nacalai Tesque), and 20 ng/ml basic fibroblast growth factor (TRANS GENIC INC., Ltd.) on a 35-mm dish under conditions at 37° C. and 5% CO2. The medium was changed every 4 days. After colonies were formed, the cells were detached using a 0.025% trypsin/1 mM EDTA solution (Nacalai Tesque), split on a 100-mm dish, and cultured under conditions at 37° C. and 5% CO2. Then, the cells which were kept 70 to 80% confluent were detached using trypsin treatment. These cells in one dish were divided into four dishes for passage.
Cells were seeded on a 96-well plate at a cell density of 5.0×10^3 cells/cm^2. […]

Assay [2] has as its system clinical specimen-derived mesenchymal stem cells. Kind of assay: RT-PCR of hepatocyte differentiation marker in clinical specimen-derived mesenchymal stem cells. As to conditions: hexachlorophene 4 μM, HC-2 20 μM, PN-3-13 20 μM, IC-2 40 μM. As for the experimental part: as §1, with “A fresh bone marrow aspirate was collected under informed consent from a patient (a person) with osteoarthritis who underwent replacement arthroplasty at the Department of Orthopedic Surgery, Tottori University Hospital. This aspirate was subjected to density gradient centrifugation using ficoll (Amersham Biosciences) to separate” for “Human”, “(FIG. 31). These bone marrow mononuclear cells” for “that had been purchased from Lonza Inc.”
Cells were seeded on a 6-well plate at a cell density of 1.8×10^4 cells/cm^2. This day was designated as day 0. At day 1 corresponding to the next day, the medium was changed to a medium containing any one of hexachlorophene (at a final concentration of 4 μM), HC-2 (at a final concentration of 20 μM), PN-3-13 (at a final concentration of 20 μM), IC-2 (at a final concentration of 40 μM), and 0.1% DMSO. […]

“(6S,9aS)-6-phenyl-8-naphthalen-1-ylmethyl-4,7-dioxo-hexahydro-pyrazino[1,2-a]pyrimidine-1-carbocylic acid benzylamide [IC-2]”: the “levels of the albumin expression” value in the assay on UE7T-13 cells is listed as “particularly high”. In addition, the “inhibition of the Wnt/β-catenin signaling pathway (luciferase activity)” value in assay [1] is on record as “significantly inhibited”. Moreover, the expression of albumin result in assay [2] is given as “induced”.
